From US10485235B2, “Aryloxypyrimidinyl ethers as herbicides” (FMC Corporation, priority 2015, dated 2019)

How the values were obtained:
Type in all cases: in vivo
[1] = tested on: foxtail, giant (giant foxtail, Setaria faberii); assay: Test A preemergence, giant foxtail; details: Preemergence, 0 to 100 scale (0 no effect, 100 complete control)
Source text: (§1) Seeds of plant species selected from barnyardgrass (Echinochloa crus-galli), kochia (Kochia scoparia), ragweed (common ragweed, Ambrosia elatior), ryegrass, Italian (Italian ryegrass, Lolium multiflorum), foxtail, giant (giant foxtail, Setaria faberii), and pigweed (Amaranthus retroflexus), were planted into a blend of loam soil and sand and treated preemergence with a directed soil spray using test chemicals formulated in a non-phytotoxic solvent mixture which included a surfactant.
(§2) At the same time, plants selected from these weed species and also wheat (Triticum aestivum), corn (Zea mays), blackgrass (Alopecurus myosuroides), and galium (catchweed bedstraw, Galium aparine), were planted in pots containing the same blend of loam soil and sand and treated with postemergence applications of test chemicals formulated in the same manner. Plants ranged in height from 2 to 10 cm and were in the one- to two-leaf stage for the postemergence treatment. Treated plants and untreated controls were maintained in a greenhouse for approximately 10 days, after which time all treated plants were compared to untreated controls and visually evaluated for injury. Plant response ratings, summarized in Table A, are based on a 0 to 100 scale where 0 is no effect and 100 is complete control. A dash (—) response means no test result.

[2] = tested on: wheat (Triticum aestivum); assay: Test A postemergence, wheat; details: postemergence, 0 to 100 scale, 0 is no effect, 100 is complete control, approximately 10 days
Source text: as §1, §2

[3] = tested on: barnyardgrass (Echinochloa crus-galli); assay: Test B flooded paddy test, barnyardgrass; details: 250 g ai/ha, Flood; visual rating after 13 to 15 days; scale 0 to 100, 0 is no effect, 100 is complete control
Protocol: (§3) Plant species in the flooded paddy test selected from rice (Oryza sativa), sedge, umbrella (small-flower umbrella sedge, Cyperus difformis), ducksalad (Heteranthera limosa), and barnyardgrass (Echinochloa crus-galli) were grown to the 2-leaf stage for testing. At time of treatment, test pots were flooded to 3 cm above the soil surface, treated by application of test compounds directly to the paddy water, and then maintained at that water depth for the duration of the test. Treated plants and controls were maintained in a greenhouse for 13 to 15 days, after which time all species were compared to controls and visually evaluated. Plant response ratings, summarized in Table B, are based on a scale of 0 to 100 where 0 is no effect and 100 is complete control. A dash (—) response means no test result.

[4] = tested on: ragweed (common ragweed, Ambrosia elatior); assay: Test A postemergence, ragweed; details: postemergence, 0 to 100 scale, 0 is no effect, 100 is complete control, approximately 10 days
Source text: as §1, §2

[5] = tested on: ryegrass, Italian (Italian ryegrass, Lolium multiflorum); assay: Test A postemergence, Italian ryegrass; details: postemergence, 0 to 100 scale, 0 is no effect, 100 is complete control, approximately 10 days
Source text: as §1, §2

[6] = tested on: pigweed (Amaranthus retroflexus); assay: Test A preemergence, pigweed; details: Preemergence, 0 to 100 scale (0 no effect, 100 complete control)
Source text: as §1, §2

[7] = tested on: barnyardgrass (Echinochloa crus-galli); assay: Test A preemergence, barnyardgrass; details: Preemergence, 0 to 100 scale (0 no effect, 100 complete control)
Source text: as §1, §2

[8] = tested on: blackgrass (Alopecurus myosuroides); assay: Test A postemergence, blackgrass; details: postemergence, 0 to 100 scale, 0 is no effect, 100 is complete control, approximately 10 days
Source text: as §1, §2

kochia (Kochia scoparia) [9] = assay: Test A preemergence, kochia; details: Preemergence, 0 to 100 scale (0 no effect, 100 complete control)
Source text: as §1, §2

[10] = tested on: sedge, umbrella (small-flower umbrella sedge, Cyperus difformis); assay: Test B flooded paddy test, umbrella sedge; details: 250 g ai/ha, Flood; visual rating after 13 to 15 days; scale 0 to 100, 0 is no effect, 100 is complete control
Protocol: as §3

[11] = tested on: barnyardgrass (Echinochloa crus-galli); assay: Test A postemergence, barnyardgrass; details: postemergence, 0 to 100 scale, 0 is no effect, 100 is complete control, approximately 10 days
Source text: as §1, §2

[12] = tested on: galium (catchweed bedstraw, Galium aparine); assay: Test A postemergence, galium; details: postemergence, 0 to 100 scale, 0 is no effect, 100 is complete control, approximately 10 days
Source text: as §1, §2

rice (Oryza sativa) = assay: Test B flooded paddy test, rice; details: 250 g ai/ha, Flood; visual rating after 13 to 15 days; scale 0 to 100, 0 is no effect, 100 is complete control
Protocol: as §3

[13] = tested on: ducksalad (Heteranthera limosa); assay: Test B flooded paddy test, ducksalad; details: 250 g ai/ha, Flood; visual rating after 13 to 15 days; scale 0 to 100, 0 is no effect, 100 is complete control
Protocol: as §3

corn (Zea mays) = assay: Test A postemergence, corn; details: postemergence, 0 to 100 scale, 0 is no effect, 100 is complete control, approximately 10 days
Source text: as §1, §2

kochia (Kochia scoparia) [14] = assay: Test A postemergence, kochia; details: postemergence, 0 to 100 scale, 0 is no effect, 100 is complete control, approximately 10 days
Source text: as §1, §2

[15] = tested on: pigweed (Amaranthus retroflexus); assay: Test A postemergence, pigweed; details: postemergence, 0 to 100 scale, 0 is no effect, 100 is complete control, approximately 10 days
Source text: as §1, §2

[16] = tested on: ragweed (common ragweed, Ambrosia elatior); assay: Test A preemergence, ragweed; details: Preemergence, 0 to 100 scale (0 no effect, 100 complete control)
Source text: as §1, §2

[17] = tested on: foxtail, giant (giant foxtail, Setaria faberii); assay: Test A postemergence, giant foxtail; details: postemergence, 0 to 100 scale, 0 is no effect, 100 is complete control, approximately 10 days
Source text: as §1, §2

[18] = tested on: ryegrass, Italian (Italian ryegrass, Lolium multiflorum); assay: Test A preemergence, Italian ryegrass; details: Preemergence, 0 to 100 scale (0 no effect, 100 complete control)
Source text: as §1, §2

Row | Compound | Plant response rating, Foxtail, Giant ([1]; 125 g ai/ha) | Plant response rating, Wheat ([2]; 125 g ai/ha) | Plant response rating, Barnyardgrass [3] | Plant response rating, Ragweed ([4]; 125 g ai/ha) | Plant response rating, Ryegrass, Italian ([5]; 125 g ai/ha) | Plant response rating, Pigweed ([6]; 125 g ai/ha) | Plant response rating, Barnyardgrass ([7]; 125 g ai/ha) | Plant response rating, Blackgrass ([8]; 125 g ai/ha) | Plant response rating, Kochia (kochia (Kochia scoparia) [9]; 125 g ai/ha) | Plant response rating, Sedge, Umbrella [10] | Plant response rating, Barnyardgrass ([11]; 125 g ai/ha) | Plant response rating, Galium ([12]; 125 g ai/ha) | Plant response rating, Rice (rice (Oryza sativa)) | Plant response rating, Ducksalad [13] | Plant response rating, Corn (corn (Zea mays); 125 g ai/ha) | Plant response rating, Kochia (kochia (Kochia scoparia) [14]; 125 g ai/ha) | Plant response rating, Pigweed ([15]; 125 g ai/ha) | Plant response rating, Ragweed ([16]; 125 g ai/ha) | Plant response rating, Foxtail, Giant ([17]; 125 g ai/ha) | Plant response rating, Ryegrass, Italian ([18]; 125 g ai/ha) | further results
1 | N#Cc1cccc(Oc2ncc(Cl)cn2)c1OCc1ccc(Cl)cc1 [Compound 3] | 90 | 0 | 0 | 60 | 20 | 90 | 50 | 20 | 80 | 80 | 50 | 60 | 0 | 0 | 10 | 70 | 100 | 0 | 60 | 20 | Plant response rating, Foxtail, Giant ([1]; 500 g ai/ha): 100; Plant response rating, Wheat ([2]; 500 g ai/ha): 10; Plant response rating, Ragweed ([4]; 500 g ai/ha): 60; Plant response rating, Ryegrass, Italian ([5]; 500 g ai/ha): 30; Plant response rating, Pigweed ([6]; 500 g ai/ha): 90; Plant response rating, Barnyardgrass ([7]; 500 g ai/ha): 90; Plant response rating, Blackgrass ([8]; 500 g ai/ha): 50; Plant response rating, Kochia (kochia (Kochia scoparia) [9]; 500 g ai/ha): 90; Plant response rating, Barnyardgrass ([11]; 500 g ai/ha): 50; Plant response rating, Galium ([12]; 500 g ai/ha): 90; Plant response rating, Corn (corn (Zea mays); 500 g ai/ha): 20; Plant response rating, Kochia (kochia (Kochia scoparia) [14]; 500 g ai/ha): 90; Plant response rating, Pigweed ([15]; 500 g ai/ha): 100; Plant response rating, Ragweed ([16]; 500 g ai/ha): 10; Plant response rating, Foxtail, Giant ([17]; 500 g ai/ha): 70; Plant response rating, Ryegrass, Italian ([18]; 500 g ai/ha): 30
2 | N#Cc1cccc(Oc2ncc(Cl)cn2)c1OCc1ccc(Cl)cn1 [Compound 6] | 20 | 0 | 0 | 0 | 0 | 90 | 0 | 10 | 0 | 0 | 10 | 40 | 0 | 0 | 20 | 60 | 80 | 0 | 10 | 0 | Plant response rating, Foxtail, Giant ([1]; 31 g ai/ha): 0; Plant response rating, Wheat ([2]; 31 g ai/ha): 0; Plant response rating, Ragweed ([4]; 31 g ai/ha): 0; Plant response rating, Ryegrass, Italian ([5]; 31 g ai/ha): 0; Plant response rating, Pigweed ([6]; 31 g ai/ha): 10; Plant response rating, Barnyardgrass ([7]; 31 g ai/ha): 0; Plant response rating, Blackgrass ([8]; 31 g ai/ha): 0; Plant response rating, Kochia (kochia (Kochia scoparia) [9]; 31 g ai/ha): 0; Plant response rating, Barnyardgrass ([11]; 31 g ai/ha): 0; Plant response rating, Galium ([12]; 31 g ai/ha): 30; Plant response rating, Corn (corn (Zea mays); 31 g ai/ha): 10; Plant response rating, Kochia (kochia (Kochia scoparia) [14]; 31 g ai/ha): 10; Plant response rating, Pigweed ([15]; 31 g ai/ha): 20; Plant response rating, Ragweed ([16]; 31 g ai/ha): 0; Plant response rating, Foxtail, Giant ([17]; 31 g ai/ha): 0; Plant response rating, Ryegrass, Italian ([18]; 31 g ai/ha): 0
3 | Fc1cccc(Oc2ncc(Cl)cn2)c1OC/C=C/Cl [Compound 9] | 100 | 0 | 0 | 0 | 0 | 80 | 40 | 10 | 40 | 80 | 20 | 60 | 0 | 80 | 10 | 70 | 60 | 0 | 20 | 0 | Plant response rating, Foxtail, Giant ([1]; 500 g ai/ha): 100; Plant response rating, Wheat ([2]; 500 g ai/ha): 10; Plant response rating, Ragweed ([4]; 500 g ai/ha): 0; Plant response rating, Ryegrass, Italian ([5]; 500 g ai/ha): 10; Plant response rating, Pigweed ([6]; 500 g ai/ha): 100; Plant response rating, Barnyardgrass ([7]; 500 g ai/ha): 100; Plant response rating, Blackgrass ([8]; 500 g ai/ha): 70; Plant response rating, Kochia (kochia (Kochia scoparia) [9]; 500 g ai/ha): 100; Plant response rating, Barnyardgrass ([11]; 500 g ai/ha): 80; Plant response rating, Galium ([12]; 500 g ai/ha): 90; Plant response rating, Corn (corn (Zea mays); 500 g ai/ha): 30; Plant response rating, Kochia (kochia (Kochia scoparia) [14]; 500 g ai/ha): 100; Plant response rating, Pigweed ([15]; 500 g ai/ha): 100; Plant response rating, Ragweed ([16]; 500 g ai/ha): 0; Plant response rating, Foxtail, Giant ([17]; 500 g ai/ha): 80; Plant response rating, Ryegrass, Italian ([18]; 500 g ai/ha): 20
